Values after ≈ are worked out from the molar mass of the structure shown.
Tests used:
[1] = short-term; duration: 28 days; no effects
[2] = tested on: Plant; conditions: chronic/long-term; duration: 28 days; frond number
[3] = tested on: Daphnia magna; conditions: chronic/long-term; duration: 21 days; mortality
[4] = tested on: Anas platyrhynchos; conditions: reproductive
[5] = tested on: Tagia sp.; conditions: acute; duration: 14 days; mortality
[6] = tested on: Oncorhynchus mykiss
[7] = tested on: Rattus norvegicus
[8] = tested on: Bibionidae; conditions: chronic/long-term; duration: 23 days; other
[9] = tested on: Colinus virginianus; conditions: acute, oral, mortality

Structure (SMILES): C#CCN1C(=O)COc2cc(F)c(N3C(=O)C4=C(CCCC4)C3=O)cc21 [Flumioxazin]
- NOEC [1]: 0.15 mg/L
- NOEC [2]: 6.3 µg/L
- NOEC [3]: 0.1 mg/L
- NOEL [4]: 34.3 mg/kg-day
- LC50 [5]: > 982 mg/kg
- LC50 ([6]; acute, duration: 96 hours, mortality): 2.3 µg/mL (≈ 6.49 µM)
- NOEC ([6]; chronic/long-term, duration: 21 days, growth): 0.37 mg/L
- LD50 ([7]; acute, mortality): > 5000 mg/kg-day
- NOAEL ([7]; chronic, duration: 2 years, hematological): 1.8 mg/kg-day
- NOAEL ([7]; developmental, oral, gavage, development): 10 mg/kg-day
- NOAEL ([7]; reproduction developmental, growth): 7.5 mg/kg-day
- NOAEL ([7]; subchronic, duration: 90 days, oral, hematological): 2.2 mg/kg-day
- NOEC [8]: 0.73 mg/kg
- LD50 ([9]; diet): > 1510 mg/kg-day
- LD50 [9]: > 2250 mg/kg-day

From EPA's ToxValDB 9.5 (doi:10.2903/j.efsa.2014.3736)
